Test results: PMC11676996, “Inhibitory Effects of Sulfur Derivatives on Leishmania tarentolae Cell Viability and Secreted Acid Phosphatase In Vitro” (Microorganisms, 2024)

System: T1, secreted acid phosphatase (SAP)
T1 construct: native enzyme activity in cell-free culture supernatant
Assay: pNPP phosphatase assay, compound added directly to control cell-free supernatant, dose-dependent
Type: biochemical, Leishmania tarentolae

COc1cc(/C=N/NC(=S)SC)cc(OC)c1O [ZZ1-04]
IC50: 60 to 80 µM
